Data on 22 compounds can be found in US9688653B2, “Ethoxyphenyl thienyl compounds and methods for the treatment of bacterial infections” (Duke University, priority 2013, dated 2017).

Data set [1] deals with Bladder carcinoma 5637 cells. Description: Cytotoxicity counterscreen, CellTiter Glo, 72 hr. It is filed as cell-based, human. Here is the method: B. Counterscreen: Cytotoxicity Screening for Potential Inhibitors of Bacterial Capsule Biogenesis.
Purpose: This cell-based assay measures the cytotoxicity of compounds in bladder carcinoma 5637 cells using luminescent cell viability assay readout.
Cytotoxicity assay: The cytotoxicity assay was performed as described in Section 6: Appendix. Hit cytotoxicity and the 50% toxic concentration (CC50) was determined and compared to the IC50 to calculate the selectivity index.
Assay Description: Cytotoxicity: Dose response testing (dose range=300-0.58 μM) established the hit cytotoxicity data. Compounds were plated in 384-well microplates in a stacked dose response format using the same doses used in the efficacy dose response. Bladder carcinoma 5637 cells were added to the compounds, and 72 hr later cell viability was measured using CellTiter Glo (38). Hit cytotoxicity and the 50% toxic concentration (TC50) was determined and compared to the IC50 to calculate the therapeutic index. Test compounds are serially diluted in a plate to plate matrix or stacked plate matrix. All 320 compounds in a source plate are diluted together resulting in a 10 point dose response dilution series. It is visualized as a serial dilution series proceeding vertically through a stack of plates with the high dose plate on top and the low dose plate on the bottom.
Control Drug: Hyamine was used as a positive cytotoxic control. All wells contained 0.5% DMSO.
Preparation of Bladder carcinoma 5637 cells: Cells are harvested and resuspended to 80,000 cells per ml in Complete DMEM/F12®.
Endpoint Read: Following the three day incubation period, the assay plates were equilibrated to room temperature for 30 min and an equal volume (30 μL) of Cell Titer-Glo® reagent (Promega Inc.) is added to each well using a WellMate™ (Matrix, Hudson, N.H.) and plates are incubated for an additional 10 min at room temperature. At the end of the incubation, luminescence is measured using a Perkin Elmer Envision™ multi-label reader (PerkinElmer, Wellesley, Mass.) with an integration time of 0.1 s.
Cytotoxicity. Testing was performed essentially as previously described. Concentration-response testing was performed over a range 0.58-300 μM in a […] well plate format. Bladder carcinoma 5637 cells (ATCC HTB-9) were added to the compounds, and 72 hrs later cell viability was measured using CellTiter Glo (Promega). The 50% toxic concentration (TC50) was determined and compared to the IC50 to calculate the therapeutic index. Hyamine was used as a positive cytotoxic control. All wells contained 0.5% DMSO.
In general terms: The purpose of a counterscreen is to sort out artefacts and off-target activity.

Data set [2] relates to E. coli K1 strain UTI89. Nature of the data set: microbe, parasite or virus in culture. The conditions noted are these: for % Inhibition at 100 μM: HTS primary screen. From the text:
The ability of the […] to bind to bacterial capsule, infect, and lyse E. coli UT189 was used as the primary assay to identify the effects of screened compounds on bacterial capsule formation. The phenotypic end-point assay measured the fluorescence generated by cellular processing of Alamar Blue as a direct indicator of cell viability. A total of […] compounds were screened using the primary assay. […] Hits were further evaluated using […] secondary assays for alternative measurement of compound-induced reduction in bacterial capsule formation (secondary assays 1 and 2) and specificity (secondary assays 3 and 4). Confirmed actives with an SI>5 were further investigated and subjected to chemical optimization, followed by secondary assay evaluation. Secondary assays more closely characterized the ability of the compounds to reduce bacterial capsule formation and can be used to examine the mechanism of action of the compounds. The combination of primary assay (to measure capsule reduction), counter assay (for general eukaryotic cell toxicity) and secondary assay (to measure reduction in capsule formation and specificity) were combined to allow a determination of probe efficacy, selectivity, and specificity.
A. Primary Assay: Screening for Inhibitors of Bacterial Capsule Biogenesis.
Primary assay: An end-point assay to measure the amount of K1 phage-induced bacterial cell lysis was employed to determine the compound effect on capsule biogenesis. K1 bacteriophage specifically binds the bacterial capsule during the initial stages of infection. Bacteria without capsule cannot be infected and lysed by the bacteriophage. […] A total of 338,740 compounds were screened at 100 μM in the primary screen Inhibition of phage lysis was calculated relative to the mean of the bacterial (positive) control on each microtiter plate. […] For calculation of S/B/Z value, and CV, the following formulae (in which SD stands for standard deviation) were used: S/B=mean signal/mean background; Z=1-3SD of sample+3SD of control mean of sample−mean of control; % CV=(SD mean signal/mean signal)×100.
IC50 values were calculated using a 4 parameter Levenburg-Marquardt algorithm, with the maximum and minimum locked at 0 and 100 respectively.
Primary assay: The primary assay was conducted in the 1,536 well plate format. Bacterial cultures of E. coli K1 strain UTI89 (cystitis isolate) and isogenic capsule mutant strains (as controls for phage infection) were grown and prepared at the screening center immediately prior to use. Overnight starting cultures of UTI89 were grown at 37° C., and inoculated into 1 liter of LB (starting OD600˜0.03), which was sufficient for screening 40 plates (including ˜10% waste) and ˜40,000 compounds as single points.
Control wells contained UTI89 (wt K1) with 0.5% DMSO as a simulated positive control; UTI89 with 0.5% DMSO and tetracycline for a negative growth control; and media plus vehicle control. 50 mL of LB Broth was inoculated with stock 150 μL E. coli UT189 and grown overnight at 37° C. The next day, cultures were diluted 1:75 in 1 L of LB Broth containing 0.5% DMSO. 3 μL of this culture was added to each plate well, and plates were incubated, inverted, at 37° C. for 2 hr. The K1F bacteriophage stock was diluted 1:8 in LB Broth containing 0.5% DMSO, and 1.5 μL of diluted phage (or media only) was added to the pre-plated test compound wells and appropriate control wells. The plates were centrifuged briefly, and then were incubated, inverted, at 37° C. for an additional 2 hr. Afterward, Alamar Blue reagent (Invitrogen, #DAL1100) was diluted 1:2 with LB broth and 1 μL was added to each plate well.

Data set [3] deals with E. coli K1 strain UTI89. Nature of the data set: Secondary assay 2: T7 phage-mediated lysis assay. It counts as cell-based, Escherichia coli. The following applies: read-out: T7 phage IC50. From the text: D. Secondary Assay 2: Screening for Inhibitors of Bacterial Capsule Biogenesis—T7 Lysis Inhibition
Purpose: This secondary assay measures the compound mechanistic specificity for inhibition of bacterial capsule formation and excludes inhibitors of phage replication using a different bacteriophage (T7). In this assay, an increase in phage-induced lysis correlates to a decrease in capsule formation.
Purpose: This secondary assay measures the compound mechanistic specificity for inhibition of bacterial capsule formation using a different bacterial phage (T7). In this assay, an increase in phage-induced lysis correlates to a decrease in capsule formation.
Assay Description: T7 phage-mediated lysis assay: This assay determined if the mechanism of action of the compound is inhibition of phage infectivity or replication. The T7 phage has a nearly identical genome to K1F, without encoding an endosialidase. Its cycle of replication is similar to that of K1F as well. However, T7 entry into E. coli is inhibited by K capsules. This secondary assay was conducted in the 96 well plate format. […] Compounds were added in quadruplicate to plates in a concentration dependent manner in the range of 100-0.39 μM, followed by addition of 100 μL of bacterial culture. 1% DMSO (final well concentration) was included. The plates were tape sealed and shaken vigorously for 1.5 hr. An initial OD600 reading was measured to identify compounds that cause growth retardation or bacterial killing in the absence of phage. Next, T7 phage (5 μL) was added to all of the test wells. The plates were resealed and shaken vigorously at 37° C., and measurements of OD600 for phage-mediated lysis were taken after 3 hr. True inhibitors of capsule yielded bacteria that were susceptible to T7 phage and lysed within 2 hr of the addition of phage. […] The positive control drug C7 (100 μM final well concentration) was used in this screen.
T7 phage counter assay. This secondary assay was performed as previously described and was used to distinguish compounds with phage inhibitory effects from true polysaccharide capsule inhibitors. […] Thus, the presence of a capsule inhibits T7-mediated lysis. In this assay, an increase in phage-induced lysis correlates to a decrease in capsule formation. True inhibitors of capsule yielded bacteria that were susceptible to T7 phage and lysed within 2 hr of the addition of phage. […] The positive control molecule C7 (100 μM final well concentration) was used in this screen.

[4] abbreviates: read-out: K1 phage IC50, first round of synthetic analogues, n = 3.
Setting [5] is: first round of synthetic analogues, n = 2.
[6] abbreviates: read-out: K1 phage IC50, second round of synthetic analogues, n = 3.
Setting [7] is: second round of synthetic analogues, n = 2.
Where [8] appears, read: read-out: K1 phage IC50, purchased analogue series, n = 3.
[9] abbreviates: read-out: K1 phage IC50 (inhibition of K1 capsule formation).

Each structure is given as a SMILES string. pIC50: −log10 of the molar value.

In general, pIC50 refers to the negative decadic logarithm of the IC50, by convention in mol/L. Regarding `Cc1ccc(-c2cc(NC(=O)c3cccc(F)c3)c(C(=O)O)s2)cc1` [compound 53470441], the values for the pIC50 (in data set [1]; in the data set with E. coli K1 strain UTI89 [2] (setting [4]); in the data set on E. coli K1 strain UTI89 [3] (setting [5])) were 4.36, 4.27 and 5.14, respectively.
For the compound `O=C(O)c1sc(-c2ccc(OCCCC(F)(F)F)cc2)cc1NC(=O)c1c(F)cccc1F` [compound 56643024], the results for the pIC50 (in data set [1]; with E. coli K1 strain UTI89 [2] (setting [6]); with E. coli K1 strain UTI89 [3] (setting [7])) were 3.62, 4.99 and over 5.60, respectively.
Regarding `O=C(Nc1cc(-c2ccc(C(F)(F)F)cc2)sc1C(=O)O)c1ccc(Br)s1` [compound 53470428], the results for the pIC50 (in data set [1]; with E. coli K1 strain UTI89 [2] (setting [4]); with E. coli K1 strain UTI89 [3] (setting [5])) were 4.41, under 4.30 and 4.85, respectively.
As for `CC(C)(C)c1ccc(-c2cc(NC(=O)c3cc4ccccc4o3)c(C(=O)O)s2)cc1` [compound 53470424], the pIC50 is 4.46 in data set [1], under 4.00 in the data set with E. coli K1 strain UTI89 [2] (setting [4]) and 5.55 in the data set with E. coli K1 strain UTI89 [3] (setting [5]).
In the same order, the values of `O=C(Nc1cc(-c2ccc(OC(F)(F)F)cc2)sc1C(=O)O)c1ccc(Br)o1` [compound 53495057] are 4.47, 5.19 and 5.93.
With `O=C(Nc1cc(-c2ccccc2)sc1C(=O)O)c1cccs1` [compound 9945365], the negative-log IC50 (pIC50) is 4.21 in data set [1]; 4.12 in the data set with E. coli K1 strain UTI89 [2] (setting [8]); 5.16 with E. coli K1 strain UTI89 [3] (purchased analogue series, n = 2).
As to `CC(C)(C)c1ccc(-c2cc(NC(=O)c3c(F)cccc3F)c(C(=O)O)s2)cc1` [compound 53470433], the pIC50 was 4.46 in data set [1], 4.94 with E. coli K1 strain UTI89 [2] (setting [4]) and 5.79 with E. coli K1 strain UTI89 [3] (setting [5]).
On to `CCCOc1ccc(-c2cc(NC(=O)c3c(F)cc(F)cc3F)c(C(=O)O)s2)cc1` [compound 56643023], for which the pIC50 in data set [1] was 4.07; in the data set on E. coli K1 strain UTI89 [2] (setting [6]), 5.09; with E. coli K1 strain UTI89 [3] (setting [7]), over 6.20.
As to `CC(C)c1ccc(-c2cc(NC(=O)c3cc4ccccc4o3)c(C(=O)O)s2)cc1` [compound 53470434], the pIC50 in data set [1] is 4.33; in the data set on E. coli K1 strain UTI89 [2] (setting [4]), 4.37; with E. coli K1 strain UTI89 [3] (setting [5]), 5.57.
Broadly, the % Inhibition is the change of the read-out against control, counted positive when it falls. For `COC(=O)c1sc(-c2ccccc2)cc1NC(C)=O` [compound 4114774], the “% Inhibition at 100 μM” value in the data set on E. coli K1 strain UTI89 [2] is 0.68%.
`COc1ccc(-c2cc(NC(=O)c3c(F)cccc3F)c(C(=O)O)s2)cc1` [CID 53470430]: in the data set with E. coli K1 strain UTI89 [2] (setting [9]), the negative logarithm of the IC50 (pIC50) is under 4.00.
On to `COC(=O)c1sc(-c2ccccc2)cc1NC(=O)c1ccc(F)cc1` [compound 3669658], for which the “% Inhibition at 100 μM” value in the data set with E. coli K1 strain UTI89 [2] was determined as 2.58%.
Take `CCOc1ccc(-c2cc(NC(=O)c3ccc(Br)o3)c(C(=O)O)s2)cc1` [CID 23602086, 3-(5-Bromofuran-2-carboxamido)-5-(4-ethoxyphenyl)thiophene-2-carboxylic acid]: the pIC50 with E. coli K1 strain UTI89 [2] (setting [9]) was 5.47; with E. coli K1 strain UTI89 [3] (Escherichia coli) it was over 5.00.
Consider `CCCCOc1ccc(-c2cc(NC(=O)c3c(F)cccc3F)c(C(=O)O)s2)cc1` [CID 56643007], for which the pIC50 with E. coli K1 strain UTI89 [2] (setting [9]) was over 6.11.
For `COC(=O)c1sc(-c2ccccc2)cc1NC(=O)c1ccccc1` [compound 6710528], the “% Inhibition at 100 μM” value in the data set with E. coli K1 strain UTI89 [2] was 4.18%.
On to `O=C(O)c1sc(-c2ccc(OCC(F)(F)F)cc2)cc1NC(=O)c1c(F)cccc1F` [CID 56643002], for which the pIC50 with E. coli K1 strain UTI89 [2] (setting [9]) is 5.54.
As to `CCOc1ccc(-c2cc(NC(=O)c3ccc(Br)o3)c(C(=O)O)s2)cc1` [compound 23602086], the negative logarithm of the IC50 (pIC50) was 4.16 in data set [1] and over 6.20 with E. coli K1 strain UTI89 [3] (setting [5]).
In the case of `CCOc1ccc(-c2cc(NC(=O)c3c(F)cccc3F)c(C(=O)OC)s2)cc1` [compound 16012549], the pIC50 in data set [1] is under 3.52; in the data set on E. coli K1 strain UTI89 [2] (setting [8]), under 4.00.
As to `[N-]=[N+]=NCCOc1ccc(-c2cc(NC(=O)c3c(F)cccc3F)c(C(=O)O)s2)cc1` [CID 56643025], the pIC50 in the data set with E. coli K1 strain UTI89 [2] (Escherichia coli, read-out: K1 phage IC50 (inhibition of K1 capsule formation)) was about 4.77.
Turning to `CCOc1ccc(-c2cc(NC(=O)c3c(F)cccc3F)c(C(=O)OC)s2)cc1` [CID 16012549], in the data set on E. coli K1 strain UTI89 [2] (setting [9]), the pIC50 was under 4.00.
With `COC(=O)c1sc(-c2ccc(Cl)cc2)cc1NC(=O)c1ccccc1C(=O)O` [compound 2814791], in the data set on E. coli K1 strain UTI89 [2], the “% Inhibition at 100 μM” value is listed as −0.17%.
Take `O=C(O)c1sc(-c2ccc(OCCCC(F)(F)F)cc2)cc1NC(=O)c1c(F)cccc1F` [CID 56643024]: in the data set on E. coli K1 strain UTI89 [2] (setting [9]), the pIC50 is 4.99.
